Laboratory results as given in patent publication US4485109A, “4-Aryl-4-piperidinecarbinols” (E. I. Du Pont de Nemours and Company, priority 1983, dated 1984).
Like-named read-outs stand apart in the source and are kept apart here.

Tested on: tetrabenazine-induced depression
Experiment: Antagonism (prevention) of tetrabenazine-induced sedation and depression in mice, orally
Assay type: in vivo, mice (Carworth CF1 S female)
Conditions: Mus musculus, 1 h, tetrabenazine 32 mg/kg i.p. 30 min after compound
Description: A standard procedure for detecting and comparing the antidepressant activity of the compounds of this invention, for which there is good correlation with human efficacy, is the prevention of tetrabenazine-induced sedation and depression in mice. (Everett, "The Dopa Response Potentiation Test and Its Use in Screening for Antidepressant Drugs", pp. 164-167 in Antidepressant Drugs [Proceedings of the First International Symposium], S. Garattini and M. N. G. Dukes (editors), 1967).
Groups of 10 Carworth CF1 S female mice, 18-21 g each, each fasted 1.5 h and were intubated with antagonist compounds at oral doses, such as 0, 1, 3, 9, 27 and 81 mg/kg in 0.20 mL of 1% Methocel® (methylcellulose).The mice were challenged 30 minutes later with tetrabenazine (as the methanesulfonate), 32 mg/kg intraperitoneally (dissolved in 0.20 mL 0.05% aqueous KCl at pH 2.0). One hour after administration of antagonist (30 minutes after administration of tetrabenazine) the mice were examined for signs of exploratory activity and ptosis (eye lid closure). Normal exploratory activity (relief from sedation) was recorded when a mouse, lifted by the tail from a group of 10 in a testing box and placed on a stainless steel testing box lid (12.5 inch (31.8 cm) by 8 inch (20.3 cm) with 0.33 inch mesh), either turned its head horizontally 30° in both directions or moved to the edge of the screen within 10 seconds after being placed on the screen. Relief from ptosis was recorded when, at exactly two seconds after placing the mouse facing the observer, lid closure was less than 50% in both eyes.

[1] = po, read-out: ORAL ED50 for prevention of exploratory loss, mice, oral, at one hour post-drug
[2] = po, read-out: ORAL ED50 for prevention of ptosis, mice, oral, at one hour post-drug

Row | SMILES | ED50 [1] | ED50 [2] | ED50 (mice, oral, at one hour post-drug, read-out: ORAL ED50 for prevention of exploratory loss) | ED50 (mice, oral, at one hour post-drug, read-out: ORAL ED50 for prevention of ptosis)
1 | CC1CCC(O)(C2(c3cccc(C(F)(F)F)c3)CCN(C)CC2)C1 (racemic) [Example 46, (±)-cis and trans-3-Methyl-1-[1'-methyl-4'-(3"-trifluoromethylphenyl)-4'-piperidinyl]cyclopentanol] | < 1 mg/kg | < 1 mg/kg | – | –
2 | CC1CCC(O)(C2(c3cccc(C(F)(F)F)c3)CCN(C)CC2)C1 (single isomer, unassigned; (-)) [Example 47, (-)-cis and trans-3-Methyl-1-[1'-methyl-4'-(3"-trifluoromethylphenyl)-4'-piperidinyl]cyclopentanol] | < 1 mg/kg | < 1 mg/kg | – | –
3 | CN(C)CCC=C1c2ccccc2CCc2ccccc21 [Amtriptyline, reference compound] | – | – | 2.7 mg/kg | 0.7 mg/kg
4 | CN1CCC(c2ccccc2)(C(C)(C)O)CC1 [Example 1, 4-Phenyl-α,α,1-trimethyl-4-piperidinemethanol] | 5.6 mg/kg | 0.78 mg/kg | – | –
5 | COc1cccc(C2(C3(O)CCCC3)CCN(C)CC2)c1OC [Example 3, 1-[1'-Methyl-4'-(2",3"-dimethoxyphenyl)-4'-piperidinyl]cyclopentanol] | 14 mg/kg | 2.8 mg/kg | – | –
6 | CN1CCC(c2ccc(F)cc2)(C(C)(C)O)CC1 [Example 5, 4-(4'-Fluorophenyl)-α,α,1-trimethyl-4-piperidinemethanol] | 0.48 mg/kg | 0.33 mg/kg | – | –
7 | Cc1ccccc1C1(C(C)(C)O)CCN(C)CC1 [Example 9, 4-(2'-Tolyl)-α,α,1-trimethyl-4-piperidinemethanol] | 0.48 mg/kg | 0.33 mg/kg | – | –
8 | Cc1ccc(C2(C(C)(C)O)CCN(C)CC2)cc1 [Example 11, 4-(4'-Tolyl)-α,α,1-trimethyl-4-piperidinemethanol] | 0.69 mg/kg | 0.57 mg/kg | – | –
9 | Cc1cc(C)cc(C2(C(C)(C)O)CCN(C)CC2)c1 [Example 12, 4-(5'-m-Xylyl)-α,α,1-trimethyl-4-piperidinemethanol] | 0.11 mg/kg | 0.064 mg/kg | – | –
10 | Cc1ccc(C2(C(C)(C)O)CCN(C)CC2)cc1C [Example 13, 4-(4'-o-Xylyl)-α,α,1-trimethyl-4-piperidinemethanol] | 0.3 mg/kg | 0.23 mg/kg | – | –
11 | COc1cccc(C2(C(C)(C)O)CCNCC2)c1 [Example 14, 4-(3'-Methoxyphenyl)-α,α-dimethyl-4-piperidinemethanol] | 4.4 mg/kg | 2.7 mg/kg | – | –
12 | COc1ccccc1C1(C(C)(C)O)CCN(C)CC1 [Example 15, 4-(2'-Methoxyphenyl)-α,α,1-trimethyl-4-piperidinemethanol] | 2.3 mg/kg | 0.57 mg/kg | – | –
13 | CCC(O)(CC)C1(c2cccc(OC)c2)CCN(C)CC1 [Example 18, 4-(3'-Methoxyphenyl)-α,α-diethyl-1-methyl-4-piperidinemethanol] | 0.71 mg/kg | 0.71 mg/kg | – | –
14 | COc1ccc(C2(C(C)(C)O)CCN(C)CC2)cc1 [Example 19, 4-(4'-Methoxyphenyl)-α,α,1-trimethyl-4-piperidinemethanol] | 1.1 mg/kg | 0.33 mg/kg | – | –
15 | COc1cccc(C2(C(C)(C)O)CCN(C)CC2)c1OC [Example 20, 4-(2',3'-Dimethoxyphenyl)-α,α,1-trimethyl-4-piperidinemethanol] | 4.6 mg/kg | 2.1 mg/kg | – | –
16 | CSc1ccc(C2(C(C)(C)O)CCN(C)CC2)cc1 [Example 21, 4-(4'-Methylthiophenyl)-α,α,1-trimethyl-4-piperidinemethanol] | 1.3 mg/kg | 1.3 mg/kg | – | –
17 | COc1cccc(C2(C3(O)CCC3)CCN(C)CC2)c1 [Example 22, 1-[1'-Methyl-4'-(3"-methoxyphenyl)-4'-piperidinyl]cyclobutanol] | 0.92 mg/kg | 0.67 mg/kg | – | –
18 | COc1cccc(C2(C3(O)CCCCC3)CCN(C)CC2)c1OC [Example 23, 1-[1'-Methyl-4'-(2",3"-dimethoxyphenyl)-4'-piperidinyl]cyclohexanol] | 38 mg/kg | 17 mg/kg | – | –
19 | CN1CCC(c2cccn2C)(C(C)(C)O)CC1 [Example 24, 4-(1'-Methyl-2'-pyrrolyl)-α,α,1-trimethyl-4-piperidinemethanol] | 1.2 mg/kg | 0.78 mg/kg | – | –
